Assay results reported in patent US20160097044A1, “Antimicrobial Enzyme Fusions Reduce Resistance and Kill Intracellular Staphylococcus aureus” (The United States of America, as Represented by the …, priority 2014, published 2016).

Experiments:
S. aureus Newbould 305 = assay: Murine model of mastitis, bacterial load; format: in vivo, C57BL6/SJL mice; details: single 1.25 nmoles intramammary infusion 30 minutes post infection, 18 h
Method: FIG. 6a depicts the specific activity of peptidoglycan hydrolase fusion constructs in vitro in a turbidity reduction assay with S. aureus Newbould 305 resuspended in lysis buffer to an OD600nm of 1.0 and treated with 1 μM final concentrations of each peptidoglycan hydrolase. The maximum specific activity for three experiments are represented as an average with SEM error bars. FIG. 6b depicts the bacterial burden in mice with mastitis treated with recombinant peptidoglycan hydrolases. Colony Forming Units (CFUs) from infected murine mammary glands following a single treatment with 50 μl of 25 μM peptidoglycan hydrolase (1.25 nmol). Each data point represents the average of duplicate bacterial platings. The horizontal bars represent the average CFU/mg for each group. FIG. 6c illustrates the TNFα response in mice with mastitis that were treated with peptidoglycan hydrolases. Data represents a minimum of 7 measurements in duplicate. Log TNFα was used for statistical analysis. Single asterisks indicate a significant difference from buffer control (p<0.05); double asterisks indicate a significant difference from the parental enzyme (p<0.05).
To evaluate the efficacy of purified, individually administered peptidoglycan hydrolases in a murine model of bovine mastitis, female C57BL6/SJL mice were challenged by the intramammary route with 100 CFU S. aureus Newbould 305 in 50 μl buffer. A single 1.25 nmoles intramammary infusion of each desired peptidoglycan hydrolase (50 μl of a 25 μM solution) or 50 μl PBS was given 30 minutes post infection [with up to six glands treated per animal, each gland receiving a unique treatment] as described earlier (Schmelcher et al. 2012. Appl. Environ. Microbiol. 78:2297-2305; Kerr et al. 2001. Nat. Biotechnol. 19:66-70). Dams were euthanized 18 h post infusion, the mammary glands were aseptically dissected, and portions of the gland were used for determination of bacterial load and TNFα concentrations, as described previously (Schmelcher et al., supra).
Statistical analysis: The variables were analyzed as two-factor mixed models with Treatment as the factor and Mouse as random Blocks. This model […] within mouse correlations. Log(TNFα) was used. The variance grouping technique was used for log CFU and log TNFα to correct for variance heterogeneity. Means comparisons were done with Sidak adjusted p-values so that the experiment-wise error was 0.05. Log(TNFα) is back-transformed to the original units for graphing.

[1] = tested on: live S. aureus strain Newman cells; assay: Turbidity reduction assay; format: cell-based; details: 30 minute assay, 150 mM NaCl in SLB, FIG. 3d
Description: FIGS. 3a-3d depict peptidoglycan hydrolase purity and the S. aureus bactericidal assay. […] FIG. 3b is a zymogram analysis using whole S. aureus (Newman) cells embedded within the gel matrix. FIG. 3c is a plate lysis analysis of peptidoglycan hydrolase constructs using live S. aureus (Newman) cell lawns clarified with indicated picomoles of each purified peptidoglycan hydrolase. FIG. 3d is a turbidity reduction analysis showing the linear range of enzyme concentration. A twofold dilution series of each enzyme was used in a 30 minute turbidity reduction assay on live S. aureus strain Newman cells to determine the enzyme concentrations that are within the linear range for each enzyme. Reaction conditions were 150 mM NaCl in SLB. Black, dark grey, light grey, and white bars represent peptidoglycan hydrolase constructs lysostaphin (L), LysK (K), triple fusion K-L, and triple fusion L-K, respectively, as named in FIG. 1a. Values are reported as the maximum rate ΔOD600nm/min±SEM.
SDS-PAGE, zymogram, turbidity reduction and plate lysis assays were performed as described previously (Becker et al. 2009, supra) with minor modifications as follows. For SDS-PAGE and zymogram analysis, one μg of the purified peptidoglycan hydrolase proteins and Kaleidoscope protein standards (Invitrogen, Carlsbad, Calif.) were analyzed by 15% SDS-PAGE. […]

[2] = tested on: intracellular S. aureus strain UAMS-1 in murine calvaria; assay: Ex vivo neonatal mouse calvaria intracellular eradication; format: cell-based
Method: Neonatal mouse whole calvaria were treated for 4 hours with chimeric peptidoglycan hydrolases or buffer alone, 24 hours post inoculation with GFP-expressing S. aureus. Calvaria were embedded in freeze media, sectioned, and subjected to fluorescence imaging. The image shown is a representative figure for triplicate sections of three separate calvaria. FIG. 8b depicts fluorescence intensity from these sections measured in ImageJ and defined as arbitrary fluorescence standardized to the untreated control. Error bars represent SEM of four replicate experiments. FIG. 8c depicts ex-vivo intracellular S. aureus eradication. Infected calvaria were homogenized and CFU were counted post treatment. Error bars represent SEM. FIG. 8d depicts a murine model of staphylococcal osteomyelitis. C57BL/6J mice were anesthetized and their femurs were surgically exposed. A trough was drilled through the bone cortex and the damaged bone sites were inoculated with 1×10^3 CFU S. aureus in agarose beads. After 24 hours, mice were treated (i.m. to site of infection) twice in a 24 h period with PBS or 5 mg/kg of triple fusion K-L or K-L-PTD1. The femurs were removed, homogenized, and plated to quantify the bacterial load. Bars indicate the average CFU recovered (N=6). […] Asterisks represent statistical significance as determined by one-way ANOVA followed by Tukey's posthoc test.
To examine the intracellular uptake and eradication in murine osteoblast-containing tissue samples, both ex vivo calvaria (skull cap), and in vivo femur injury models were tested. Calvaria were isolated from neonatal mice and infected with UAMS-1 strain of S. aureus (1×10^6 bacteria/calvaria) for 2 h at 37° C. in osteoblast growth medium in the absence of antibiotics. Following 3× washes with PBS, calvaria were exposed to 50 μg/ml of gentamicin for 15 min to kill extracellular bacteria and further cultured in gentamicin containing osteoblast growth media. After 24 h later, calvaria were treated with peptidoglycan hydrolases (5 μg/ml) or gentamicin only control for 2 h. Lysis buffer containing 0.05% trypsin and 0.25% Triton X-100 was used to homogenize the calvaria, the homogenates were quantitatively plated on LB agar plates, and the CFU were enumerated after 24 h. The data represents triplicate determinants of two separate experiments.
Calvaria were isolated, and infected as described above using GFP-tagged UAMS-1 strain of S. aureus. Two hours post-infection, calvaria were washed with PBS followed by a 15 minutes treatment with 50 μg/ml gentamicin to kill extracellular bacteria. 24 hours post-infection, calvaria were treated with 5 μg/ml peptidoglycan hydrolases or gentamicin only control for two hours and embedded in Tissue-Tek O.C.T compound (Sakura, Torrance, Calif.). […]

L: 247 amino acid mature (secreted) lysostaphin, staphylolytic bacteriocin, C-terminal His6 tag; SEQ ID NO:1 [reference compound]
reduction of bacterial load in mammary glands compared to controls (S. aureus Newbould 305): approximately 4 logs

K-L: both LysK lytic domains fused to the N-terminus of lysostaphin; SEQ ID NO:5, protein SEQ ID NO:6
turbidity reduction activity compared to parental enzymes [1]: as effective as the parental peptidoglycan hydrolases | bacterial load / clearance of mammary glands (in words) (S. aureus Newbould 305): not able to clear the mammary gland bacterial infection more than buffer alone | live bacteria (CFU) recovered from calvaria ([2]; 5 μg/ml for 2 h, homogenized calvaria): able to reduce the number of live bacteria recovered from sectioned calvaria | elimination of GFP-labeled intracellular S. aureus (fluorescence) ([2]; 5 μg/ml, 24 hours post-infection, sectioned calvaria): able to eliminate GFP-labeled intracellular S. aureus strain UAMS-1 from murine calvaria

B1: L-K: LysK lytic domains inserted between lysostaphin's M23 endopeptidase domain and SH3b cell wall binding domain; SEQ ID NO:7, protein SEQ ID NO:8 (protein)
chain: MAATHEHSAQWLNNYKKGYGYGPYPLGINGGMHYGVDFFMNIGTPVKAISSGKIVEAGWSNYGGGNQIGLIENDGVHRQWYMHLSKYNVKVGDYVKAGQIIGWSGSTGYSTAPHLHFQRMVNSFSNSTAQDPMPFLKSAGYGKAGGTVTPTPNTGLDAKTQAEINKRLDAYAKGTVDSPYRVKKATSYDPSFGVMEAGAIDADGYYHAQCQDLITDYVLWLTDNKVRTWGNAKDQIKQSYGTGFKIHENKPSTVPKKGWIAVFTSGSYEQWGHIGIVYDGGNTSTFTILEQNWNGYANKKPTKRVDNYYGLTHFIEIPVKAGTTVKKETAKKSASKTPAPKKKATLKVSKNHINYTMDKRGKKPEGMVIHNDAGRSSGQQYENSLANAGYARYANGIAHYYGSEGYVWEAIDAKNQIAWHTGDGTGANSGNFRFAGIEVCQSMSASDAQFLKNEQAVFQFTAEKFKEWGLTPNRKTVRLHMEFVPTACPHRSMVLHTGFNPVTQGRPSQAIMNKLKDYFIKQIKNYMDKGTSSSTVVKDGKTSSASLDTVTPTPNTGWKTNKYGTLYKSESASFTPNTDIITRTTGPFRSMPQSGVLKAGQTIHYDEVMKQDGHVWVGYTGNSGQRIYLPVRTWNKSTNTLGVLWGTIKLEHHHHHH
modifications: Staphylococcus simulans & Phage K
turbidity reduction activity compared to parental enzymes [1]: as effective as the parental peptidoglycan hydrolases
